According to patent US20110086395A1, “NOVEL MICROORGANISM AND ITS USE IN LIGNOCELLULOSE DETOXIFICATION” (priority 2009, published 2011):
Marks after values point to notes of the source that are not given here.

How the values were obtained:
[1] = tested on: C. basilensis HMF14; experiment: Degradation of constituents of lignocellulosic hydrolysate, shake-flask cultures with each compound as single carbon source; format: cell-based, Cupriavidus basilensis
Text: In addition to the furan derivatives, lignocellulosic hydrolysate also contains many other components that can inhibit fermentative production of biochemicals. While C. basilensis HMF14 is unable to degrade the sugars present in lignocellulosic hydrolysate, it preferably degrades many of the other toxic constituents, as illustrated in shake-flask cultures with each compound as a single carbon source (table 3).

[2] = tested on: C. basilensis HMF14; experiment: Growth of C. basilensis HMF14 on furan derivatives as sole carbon source; format: cell-based, Cupriavidus basilensis; settings: minimal medium, 3.5 mM compound as sole carbon source
Procedure: Cultures were performed either in Luria broth (LB) or in a minimal medium (MM). Enrichment cultures were performed in MM with 20 mM HMF as the carbon source (MMH20), supplemented as indicated with 0.1 g/l yeast extract as vitamin source (MMyH20). Solid media contained 1.5% agar. Soil and water samples were collected from the botanical garden of the Delft University of Technology and from a peat lake named ‘het Kootwijkerveen’ near Apeldoorn, The Netherlands. The samples were mixed and approximately 1 g was used to inoculate 50 ml MMH2O or MMyH2O in 500-ml Erlenmeyer flasks that were incubated at 30° C. for two days in a rotary shaker. One-ml samples were transferred twice to fresh medium and incubated until bacterial growth was apparent (OD600>1). The final enrichment cultures were streaked onto solid MMH10 and MMyH10 and incubated at 30° C. until colonies appeared.
(§1) Bacterial growth was determined by measuring optical density at 600 nm (OD600) using a Biowave Cell Density Meter (WPA Ltd) or a μQuant MQX200 universal microplate spectrophotometer (Bio-tek), using flat-bottom 96-well microplates (Greiner). Furan derivatives were analyzed on an Agilent 1100 system equipped with a diode array detector set at 230 nm. The column used was a Zorbax Eclipse XDB-C8 (length, 150 mm; internal diameter, 4.6 mm; particle size, 5 μm; Agilent) operated at 25° C. As eluent, a gradient of acetonitrile in 20 mM KH2PO4 (pH 2) with 1% acetonitrile was used at a flow of 1.2 ml/min, increasing from 0 to 5% in 3.5 min and from 5 to 40% in 2.5 min, set as smooth gradients.
In addition to HMF, other furan derivatives are present in lignocellulosic hydrolysates. […] Growth was observed on all tested furan derivatives, with slightly different growth characteristics (table 1). In cultures on furfural, furfural was initially rapidly converted to furfuryl alcohol, while also a small amount of furoic acid was formed (FIG. 1). Without wishing to be bound to any particular theory, conversion of furfural to its alcohol and/or acid form appears to be a common mechanism of furfural detoxification. At the onset of logarithmic growth, furfuryl alcohol production decreased in favour of biomass formation, which likely occurs via furoic acid. Similarly, HMF acid and -alcohol were formed in cultures with HMF as the carbon source. In addition, trace amounts of 2,5-furandicarboxylic acid and furoic acid were found in the HMF cultures (not shown).

[3] = tested on: P. putida S12 pJT′hmfABCDE; experiment: Growth of P. putida S12 pJT′hmfABCDE on furanics as sole carbon source; format: cell-based, Pseudomonas putida; settings: growth initially poor
Text: (§2) First, the furfural cluster hmfABCDE was introduced into P. putida S12. […] Therefore, strain S12 pJT′hmfABCDE was repeatedly transferred to fresh mineral salts medium with furfural as the sole carbon source.

[4] = tested on: HmfH; experiment: Oxidation by HmfH in cell extracts; format: biochemical; settings: cell extracts of wildtype C. basilensis HMF14 and P. putida S12 expressing HmfH
Procedure: C. basilensis HMF14 mutants with a disrupted hmfH gene accumulated HMF acid when cultured in the presence of HMF. Cell extracts of both wildtype C. basilensis HMF14 and P. putida S12 expressing HmfH formed FDCA when incubated with HMF acid, confirming that HmfH catalyzes the oxidation of the HMF-monocarboxylic acid to the dicarboxylic acid form.
Analogous to the furfural pathway, no specific genes were identified for the oxidations in the upper HMF metabolic pathway leading from HMF-alcohol to HMF and HMF-acid. Also these oxidations were concluded to be performed by non-specific, redundant dehydrogenases which activities were observed both in C. basilensis HMF14 and P. putida S12 (Table 2). However, it was observed that also HmfH could oxidize HMF, furfural, and furfuryl alcohol to the corresponding acids, respectively, furfural. Apparently, this oxidase is essential for the formation of FDCA from HMF-acid but also provides an oxidase-alternative to the non-specific alcohol and aldehyde dehydrogenases that constitute the upper metabolic pathways for HMF and furfural.

[5] = tested on: HmfFG; experiment: Decarboxylase activity of HmfFG in cell extracts; format: biochemical; settings: cell extracts of wildtype C. basilensis HMF14 and P. putida S12 expressing HmfFG
[6] = tested on: Cupriavidus sp. HMF14; experiment: Growth of Cupriavidus sp. HMF14 on carbon sources (strain characterization); format: cell-based, Cupriavidus basilensis
[7] = tested on: C. basilensis HMF14; experiment: Detoxification of wheat straw hydrolysate by C. basilensis HMF14; format: cell-based, Cupriavidus basilensis; settings: for Concentration in hydrolysate during cultivation: during the first ten hours of cultivation; for Removal from wheat straw hydrolysate: after ten hours of cultivation
Procedure: Wheat straw hydrolysate was produced by dilute-acid hydrolysis (obtained from TNO Quality of Life, Zeist, The Netherlands). The hydrolysate was neutralized by adding 37 mM phosphate buffer (pH 7) and adjusting the pH to 7.0 with 10 M NaOH, resulting in a brown precipitate. After addition of minimal medium components, the solution was centrifuged at 10 000×g for 5 min. The supernatant was filter sterilized through a sterile PTFE filter with a pore size of 0.22 μm. The resulting medium (MMhyd) was inoculated with an overnight pre-culture of C. basilensis HMF14 in minimal medium with 3 mM HMF, 3 mM furfural and 12 mM sodium succinate.
as §1
Glucose, xylose and arabinose were analyzed by ion chromatography (Dionex ICS3000 system), using a CarboPac PA20 column (length, 150 mm; internal diameter, 3 mm) with 10 mM NaOH at a flow rate of 0.5 ml·min−1 as the eluent.

[8] = tested on: C. basilensis HMF14; experiment: Tolerance of C. basilensis HMF14 towards furfural and HMF, shake-flask cultures; format: cell-based, Cupriavidus basilensis; settings: for Growth in the presence of compound: 5 mM; for Growth after 24 h of cultivation: shake-flask cultures with 3-15 mM furfural or HMF
Procedure: C. basilensis HMF14 grew in the presence of 5 mM of furfural or HMF (0.48 g/l, and 0.63 g/l respectively). However, since the concentration of these toxic compounds is often higher in lignocellulosic hydrolysates, with values ranging from 0 to 3.5 g/l for furfural, and from 0 to 5.9 g/l for HMF, the tolerance of C. basilensis HMF14 towards furfural and HMF was determined in shake-flask cultures with 3-15 mM furfural or HMF (FIG. 2, table 2). […] Also in the HMF cultures, no stable exponential growth was observed, but the apparent growth rate decreased rather than increased with increasing HMF concentrations.

[9] = tested on: P. putida strain S12_fur; experiment: Growth of P. putida S12_fur on furfural as sole carbon source; format: cell-based, Pseudomonas putida
Text: as §2

[10] = tested on: P. putida S12_HMF; experiment: Growth of P. putida S12_HMF on furfural or HMF as sole carbon source; format: cell-based, Pseudomonas putida
Text: Subsequently, the hmfFGH genes were cloned into P. putida S12_fur. […] Gene hmfH′ was apparently dispensable for growth on HMF, confirming that the encoded gene had no function in HMF metabolism. Nor was the gene essential for HMF transport in P. putida S12. Thus, also all genes required for the utilization of HMF were characterized, and their functionality was reconfirmed by functional expression in a heterologous host.

[11] = tested on: Ralstonia eutropha; settings: cited from earlier work
[12] = tested on: P. putida S12 strains expressing only HmfABCD or HmfABC; experiment: Growth of P. putida S12 strains expressing only HmfABCD or HmfABC; format: cell-based, Pseudomonas putida
[13] = shake-flask cultures, compound as single carbon source

Structure (SMILES): COc1cc(C(=O)O)ccc1O [Vanillic acid]
- Substrate utilization by C. basilensis HMF14 [1, 13]: Y

Structure (SMILES): OCc1ccco1 [Furfuryl alcohol]
- Max. OD600 [2]: 1.08
- μmax [2]: 0.22 h⁻¹
- Substrate utilization by C. basilensis HMF14 [1, 13]: Y
- Utilization as sole carbon source [3]: able to utilize
- Oxidation by HmfH [4]: could oxidize

Structure (SMILES): O=C(O)c1ccc(C(=O)O)o1 [FDCA, 2,5-furan-dicarboxylic acid]
- Decarboxylation by HmfFG [5]: formed 2-furoic acid

Structure (SMILES): Oc1ccccc1 [Phenol]
- Substrate utilization by C. basilensis HMF14 [1, 13]: Y
- Growth on carbon source [6]: able to grow

Structure (SMILES): COc1cc(CO)ccc1O [Vanillyl alcohol]
- Substrate utilization by C. basilensis HMF14 [1, 13]: Y

Structure (SMILES): O=C(O)c1ccc(CO)o1 [HMF acid, 5-hydroxymethyl-2-furancarboxylic acid]
- Decarboxylation by HmfFG [5]: not decarboxylated
- Oxidation by HmfH [4]: formed FDCA

Structure (SMILES): O=C[C@H](O)[C@@H](O)[C@H](O)CO [Xylose]
- Substrate utilization by C. basilensis HMF14 [1, 13]: N
- Growth on carbon source [6]: No growth
- Concentration in hydrolysate during cultivation [7]: stable

Structure (SMILES): COc1cc(C=O)cc(OC)c1O [Syringaldehyde]
- Substrate utilization by C. basilensis HMF14 [1, 13]: N

Structure (SMILES): COc1cc(C=O)ccc1O [Vanillin]
- Substrate utilization by C. basilensis HMF14 [1, 13]: Y

Structure (SMILES): CC(=O)CCC(=O)O [Levulinic acid]
- Substrate utilization by C. basilensis HMF14 [1, 13]: Y

Structure (SMILES): O=Cc1ccc(O)cc1 [4-hydroxybenzaldehyde]
- Substrate utilization by C. basilensis HMF14 [1, 13]: Y

Structure (SMILES): O=CO [Formic acid]
- Substrate utilization by C. basilensis HMF14 ([1]; only co-utilized with a different carbon source): Y^b
- Removal from wheat straw hydrolysate [7]: completely removed

Structure (SMILES): CC(=O)O [Acetic acid]
- Substrate utilization by C. basilensis HMF14 [1, 13]: Y
- Growth on carbon source [6]: able to grow
- Removal from wheat straw hydrolysate [7]: completely removed

Structure (SMILES): COc1cc(C(=O)O)cc(OC)c1O [Syringic acid]
- Substrate utilization by C. basilensis HMF14 [1, 13]: N

Structure (SMILES): O=Cc1ccco1 [Furfural]
- Max. OD600 [2]: 1.09
- μmax [2]: 0.22 h⁻¹
- Substrate utilization by C. basilensis HMF14 [1, 13]: Y
- Growth in the presence of compound [8]: grew
- Growth after 24 h of cultivation [8]: growth was observed at all concentrations tested
- Utilization as sole carbon source [3]: able to utilize
- Biomass yield [9]: 51 % (C-mol biomass/C-mol substrate)
- Growth rate ([9]; after 10 serial transfers): 0.30 h⁻¹
- Growth rate [10]: 0.23 h⁻¹
- Yield [10]: 40 % (C-mol biomass/C-mol substrate)
- Oxidation by HmfH [4]: could oxidize
- Metabolic activity of R. Eutropha on compound [11]: high metabolic activity

Structure (SMILES): O=C(CO)[C@@H](O)[C@H](O)[C@H](O)CO [fructose]
- Metabolic activity of R. Eutropha on compound [11]: high metabolic activity

Structure (SMILES): O=C(O)c1ccco1 [Furoic acid]
- Max. OD600 [2]: 0.99
- μmax [2]: 0.29 h⁻¹
- Utilization as sole carbon source [3]: able to utilize
- Growth on compound [12]: failed to grow

Structure (SMILES): O=C(O)CCC(=O)O [succinate]
- Growth on carbon source [6]: able to grow

Structure (SMILES): OCc1ccc(O)cc1 [4-hydroxybenzyl alcohol]
- Substrate utilization by C. basilensis HMF14 [1, 13]: Y

Structure (SMILES): COc1ccccc1O [Guaiacol]
- Substrate utilization by C. basilensis HMF14 [1, 13]: Y

Structure (SMILES): O=C(O)c1ccc(O)cc1 [4-hydroxybenzoic acid]
- Substrate utilization by C. basilensis HMF14 [1, 13]: Y

Structure (SMILES): O=Cc1ccc(CO)o1 [HMF, 5-(hydroxymethyl)-furfural]
- Max. OD600 [2]: 0.95
- μmax [2]: 0.25^a h−1
- Substrate utilization by C. basilensis HMF14 [1, 13]: Y
- Growth in the presence of compound [8]: grew
- Growth after 24 h of cultivation [8]: growth was observed at all concentrations tested
- Growth rate [10]: 0.23 h⁻¹
- Yield [10]: 40 % (C-mol biomass/C-mol substrate)
- Oxidation by HmfH [4]: could oxidize

Structure (SMILES): O=C[C@@H](O)[C@H](O)[C@H](O)CO [Arabinose]
- Substrate utilization by C. basilensis HMF14 [1, 13]: N
- Growth on carbon source [6]: No growth
- Concentration in hydrolysate during cultivation [7]: stable

Structure (SMILES): O=C(O)CC(O)(CC(=O)O)C(=O)O [citrate]
- Growth on carbon source [6]: able to grow

Structure (SMILES): O=C(O)[C@H](O)[C@@H](O)[C@H](O)[C@H](O)CO [gluconate]
- Growth on carbon source [6]: able to grow

Structure (SMILES): c1ccccc1 [benzene]
- Growth on carbon source [6]: able to grow

Structure (SMILES): COc1cc(/C=C/C(=O)O)ccc1O [Ferulic acid]
- Substrate utilization by C. basilensis HMF14 [1, 13]: Y

Structure (SMILES): Cc1ccccc1 [toluene]
- Growth on carbon source [6]: able to grow

Structure (SMILES): COc1cccc(OC)c1O [Syringol]
- Substrate utilization by C. basilensis HMF14 [1, 13]: N
